{"source": "paper PMC10912062", "about": "“A novel PET probe to selectively image heat shock protein 90α/β isoforms in the brain” (EJNMMI Radiopharmacy and Chemistry, 2024)", "assay_in_all_cases": "biochemical", "conditions_in_all_cases": "read-out: Percentage of inhibition / BIIB021 1×10-5 mol/L; competitive radioligand binding", "key": {"[1]": {"biological_target": "T1, α2B-Adrenergic (Human) (Homo sapiens, UniProt P18089)", "T1 construct": "gene ADRA2B", "experimental": "(§1) Percent inhibition for each protein was calculated following the reported method (Okamura et al. [2013])."}, "[2]": {"biological_target": "T2, Cannabinoid CB2 (Human) (Homo sapiens, UniProt P34972)", "T2 construct": "gene CNR2", "experimental": "as §1"}, "[3]": {"biological_target": "T3, Melatonin MT1 (Human) (Homo sapiens, UniProt P48039)", "T3 construct": "gene MTNR1A", "T3 sequence (P48039 whole entry)": "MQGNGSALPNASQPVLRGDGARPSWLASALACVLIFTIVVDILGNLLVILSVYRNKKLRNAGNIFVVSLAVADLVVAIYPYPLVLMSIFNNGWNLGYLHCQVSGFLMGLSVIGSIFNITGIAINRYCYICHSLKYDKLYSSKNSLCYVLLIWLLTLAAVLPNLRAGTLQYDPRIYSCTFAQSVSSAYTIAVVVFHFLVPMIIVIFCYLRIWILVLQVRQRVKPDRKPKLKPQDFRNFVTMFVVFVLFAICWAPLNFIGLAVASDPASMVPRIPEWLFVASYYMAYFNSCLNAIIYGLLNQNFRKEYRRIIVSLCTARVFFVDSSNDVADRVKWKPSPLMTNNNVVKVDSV", "experimental": "as §1"}, "[4]": {"biological_target": "T4, Serotonin 5HT2A (Human) (Homo sapiens, UniProt P28223)", "T4 construct": "gene HTR2A", "experimental": "as §1"}, "[5]": {"biological_target": "T5, Histamine H1 (Human) (Homo sapiens, UniProt P35367)", "T5 construct": "gene HRH1", "experimental": "as §1"}, "[6]": {"biological_target": "T6, Sigma σ2 (Rattus norvegicus, UniProt Q5U3Y7)", "T6 construct": "gene Tmem97", "T6 sequence (Q5U3Y7 whole entry)": "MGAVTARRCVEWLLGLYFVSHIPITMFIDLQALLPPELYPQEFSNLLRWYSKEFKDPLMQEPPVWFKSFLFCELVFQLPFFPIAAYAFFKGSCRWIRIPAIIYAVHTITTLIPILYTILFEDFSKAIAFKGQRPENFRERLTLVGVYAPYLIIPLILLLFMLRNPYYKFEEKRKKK", "experimental": "as §1"}, "[7]": {"biological_target": "T7, β1-Adrenergic (Human) (Homo sapiens, UniProt P08588)", "T7 construct": "gene ADRB1", "experimental": "as §1"}, "[8]": {"biological_target": "T8, Adenosine A1 (Human) (Homo sapiens, UniProt P30542)", "T8 construct": "gene ADORA1", "experimental": "as §1"}, "[9]": {"biological_target": "T9, Histamine H3 (Human) (Homo sapiens, UniProt Q9Y5N1)", "T9 construct": "gene HRH3", "experimental": "as §1"}, "[10]": {"biological_target": "T10, Norepinephrine transporter (Human) (Homo sapiens, UniProt P23975)", "T10 construct": "gene SLC6A2", "experimental": "as §1"}, "[11]": {"biological_target": "T11, Dopamine transporter (Human) (Homo sapiens, UniProt Q01959)", "T11 construct": "gene SLC6A3", "T11 sequence (Q01959 whole entry)": "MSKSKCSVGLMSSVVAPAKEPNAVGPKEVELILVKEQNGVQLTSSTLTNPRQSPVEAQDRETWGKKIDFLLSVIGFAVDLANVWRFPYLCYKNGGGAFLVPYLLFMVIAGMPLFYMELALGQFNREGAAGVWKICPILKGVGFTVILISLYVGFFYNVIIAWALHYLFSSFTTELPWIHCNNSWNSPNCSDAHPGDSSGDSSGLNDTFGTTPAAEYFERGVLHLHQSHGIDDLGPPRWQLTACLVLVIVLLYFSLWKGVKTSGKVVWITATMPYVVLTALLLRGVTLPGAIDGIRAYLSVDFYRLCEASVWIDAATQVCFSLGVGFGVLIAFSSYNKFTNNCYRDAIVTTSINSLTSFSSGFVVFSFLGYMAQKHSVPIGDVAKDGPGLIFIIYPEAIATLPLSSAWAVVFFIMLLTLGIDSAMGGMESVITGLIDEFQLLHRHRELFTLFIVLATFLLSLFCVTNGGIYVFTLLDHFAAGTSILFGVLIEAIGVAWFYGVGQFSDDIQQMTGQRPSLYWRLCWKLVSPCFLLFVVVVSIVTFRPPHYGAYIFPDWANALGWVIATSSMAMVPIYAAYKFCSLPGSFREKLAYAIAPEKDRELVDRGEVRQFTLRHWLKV", "experimental": "as §1"}, "[12]": {"biological_target": "T12, Dopamine D1 (Human) (Homo sapiens, UniProt P21728)", "T12 construct": "gene DRD1", "experimental": "as §1"}, "[13]": {"biological_target": "T13, GABA B (Rattus norvegicus, UniProt Q9Z0U4)", "T13 construct": "gene Gabbr1", "experimental": "as §1"}, "[14]": {"biological_target": "T14, β2-Adrenergic (Human) (Homo sapiens, UniProt P07550)", "T14 construct": "gene ADRB2", "experimental": "as §1"}, "[15]": {"biological_target": "T15, Muscarinic M1 (Human) (Homo sapiens, UniProt P11229)", "T15 construct": "gene CHRM1", "experimental": "as §1"}, "[16]": {"biological_target": "T16, Opiate δ (Human) (Homo sapiens, UniProt P41143)", "T16 construct": "gene OPRD1", "T16 sequence (P41143 whole entry)": "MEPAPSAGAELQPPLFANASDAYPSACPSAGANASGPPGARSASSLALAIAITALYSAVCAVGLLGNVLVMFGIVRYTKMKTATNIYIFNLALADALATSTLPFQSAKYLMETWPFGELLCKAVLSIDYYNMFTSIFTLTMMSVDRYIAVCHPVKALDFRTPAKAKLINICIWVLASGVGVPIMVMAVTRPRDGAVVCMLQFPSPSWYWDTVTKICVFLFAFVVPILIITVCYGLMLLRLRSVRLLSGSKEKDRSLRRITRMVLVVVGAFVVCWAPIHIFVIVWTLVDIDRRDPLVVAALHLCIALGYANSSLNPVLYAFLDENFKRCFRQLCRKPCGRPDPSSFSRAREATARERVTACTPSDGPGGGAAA", "experimental": "as §1"}, "[17]": {"biological_target": "T17, Serotonin 5HT1A (Human) (Homo sapiens, UniProt P08908)", "T17 construct": "gene HTR1A", "T17 sequence (P08908 whole entry)": "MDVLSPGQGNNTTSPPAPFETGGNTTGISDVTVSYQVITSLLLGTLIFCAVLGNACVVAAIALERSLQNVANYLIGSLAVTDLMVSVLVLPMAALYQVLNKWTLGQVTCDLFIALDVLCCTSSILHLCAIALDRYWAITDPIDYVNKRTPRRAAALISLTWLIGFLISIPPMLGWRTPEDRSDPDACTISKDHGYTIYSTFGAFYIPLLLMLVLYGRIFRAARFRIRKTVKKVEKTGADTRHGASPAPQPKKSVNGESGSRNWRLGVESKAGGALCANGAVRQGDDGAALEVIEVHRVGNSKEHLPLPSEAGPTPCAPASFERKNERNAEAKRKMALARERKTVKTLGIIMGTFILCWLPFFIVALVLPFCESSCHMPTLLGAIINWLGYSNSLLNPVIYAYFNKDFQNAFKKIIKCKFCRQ", "experimental": "as §1"}, "[18]": {"biological_target": "T18, Glucocorticoid (Human) (Homo sapiens, UniProt P04150)", "T18 construct": "gene NR3C1", "experimental": "as §1"}, "[19]": {"biological_target": "T19, Serotonin 5HT3 (Human) (Homo sapiens, UniProt P46098)", "T19 construct": "gene HTR3A", "experimental": "as §1"}, "[20]": {"biological_target": "T20, Androgen (Rattus norvegicus, UniProt P15207)", "T20 construct": "gene Ar", "experimental": "as §1"}, "[21]": {"biological_target": "T21, Opiate κ (Human) (Homo sapiens, UniProt P41145)", "T21 construct": "gene OPRK1", "experimental": "as §1"}, "[22]": {"biological_target": "T22, Angiotensin AT1 (Human) (Homo sapiens, UniProt P30556)", "T22 construct": "gene AGTR1", "T22 sequence (P30556 whole entry)": "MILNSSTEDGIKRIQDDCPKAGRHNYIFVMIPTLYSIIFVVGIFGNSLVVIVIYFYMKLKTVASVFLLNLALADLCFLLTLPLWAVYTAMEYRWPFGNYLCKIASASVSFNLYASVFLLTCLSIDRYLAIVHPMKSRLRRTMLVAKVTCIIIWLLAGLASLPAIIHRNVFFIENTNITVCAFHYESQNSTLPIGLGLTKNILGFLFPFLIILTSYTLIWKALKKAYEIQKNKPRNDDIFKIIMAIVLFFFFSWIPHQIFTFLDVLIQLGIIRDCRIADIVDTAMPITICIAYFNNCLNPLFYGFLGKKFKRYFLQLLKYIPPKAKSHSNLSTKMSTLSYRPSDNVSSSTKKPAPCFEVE", "experimental": "as §1"}, "[23]": {"biological_target": "T23, α1B-Adrenergic (Rattus norvegicus, UniProt P15823)", "T23 construct": "gene Adra1b", "T23 sequence (P15823 whole entry)": "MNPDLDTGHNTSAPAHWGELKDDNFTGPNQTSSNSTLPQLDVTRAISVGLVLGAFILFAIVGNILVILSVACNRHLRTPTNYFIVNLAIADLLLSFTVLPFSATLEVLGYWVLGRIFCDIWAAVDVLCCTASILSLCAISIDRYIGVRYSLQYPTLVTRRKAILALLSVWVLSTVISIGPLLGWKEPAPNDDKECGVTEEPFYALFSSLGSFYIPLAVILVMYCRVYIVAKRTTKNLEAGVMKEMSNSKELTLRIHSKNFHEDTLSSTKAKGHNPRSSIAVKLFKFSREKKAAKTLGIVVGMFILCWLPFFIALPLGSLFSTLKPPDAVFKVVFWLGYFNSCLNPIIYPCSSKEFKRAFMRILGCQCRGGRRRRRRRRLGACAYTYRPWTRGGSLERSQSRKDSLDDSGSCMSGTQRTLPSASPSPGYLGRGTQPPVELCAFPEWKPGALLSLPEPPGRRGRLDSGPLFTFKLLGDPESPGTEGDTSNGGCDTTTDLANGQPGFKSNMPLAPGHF", "experimental": "as §1"}, "[24]": {"biological_target": "T24, Dopamine D3 (Human) (Homo sapiens, UniProt P35462)", "T24 construct": "gene DRD3", "T24 sequence (P35462 whole entry)": "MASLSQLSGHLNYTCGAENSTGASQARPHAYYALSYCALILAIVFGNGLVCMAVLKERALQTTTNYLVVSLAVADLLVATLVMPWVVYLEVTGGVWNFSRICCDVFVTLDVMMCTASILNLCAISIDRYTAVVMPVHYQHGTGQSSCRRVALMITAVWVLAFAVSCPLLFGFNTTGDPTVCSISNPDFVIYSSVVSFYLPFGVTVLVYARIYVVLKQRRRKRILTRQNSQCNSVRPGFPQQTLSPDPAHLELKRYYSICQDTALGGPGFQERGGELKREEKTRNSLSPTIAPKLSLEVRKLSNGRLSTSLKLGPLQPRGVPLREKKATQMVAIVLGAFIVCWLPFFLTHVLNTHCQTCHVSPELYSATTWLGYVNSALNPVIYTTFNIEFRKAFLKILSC", "experimental": "as §1"}, "[25]": {"biological_target": "T25, Endothelin ETB (Human) (Homo sapiens, UniProt P24530)", "T25 construct": "gene EDNRB", "experimental": "as §1"}, "[26]": {"biological_target": "T26, Histamine H2 (Human) (Homo sapiens, UniProt P25021)", "T26 construct": "gene HRH2", "experimental": "as §1"}, "[27]": {"biological_target": "T27, CCK A (Human) (Homo sapiens, UniProt P32238)", "T27 construct": "gene CCKAR", "experimental": "as §1"}, "[28]": {"biological_target": "T28, Endothelin ETA (Human) (Homo sapiens, UniProt P25101)", "T28 construct": "gene EDNRA", "experimental": "as §1"}, "[29]": {"biological_target": "T29, α1A-Adrenergic (Rattus norvegicus, UniProt P43140)", "T29 construct": "gene Adra1a", "experimental": "as §1"}, "[30]": {"biological_target": "T30, Muscarinic M3 (Human) (Homo sapiens, UniProt P20309)", "T30 construct": "gene CHRM3", "experimental": "as §1"}, "[31]": {"biological_target": "T31, Serotonin transporter (Human) (Homo sapiens, UniProt P31645)", "T31 construct": "gene SLC6A4", "experimental": "as §1"}, "[32]": {"biological_target": "T32, Opiate μ (Human) (Homo sapiens, UniProt P35372)", "T32 construct": "gene OPRM1", "T32 sequence (P35372 whole entry)": "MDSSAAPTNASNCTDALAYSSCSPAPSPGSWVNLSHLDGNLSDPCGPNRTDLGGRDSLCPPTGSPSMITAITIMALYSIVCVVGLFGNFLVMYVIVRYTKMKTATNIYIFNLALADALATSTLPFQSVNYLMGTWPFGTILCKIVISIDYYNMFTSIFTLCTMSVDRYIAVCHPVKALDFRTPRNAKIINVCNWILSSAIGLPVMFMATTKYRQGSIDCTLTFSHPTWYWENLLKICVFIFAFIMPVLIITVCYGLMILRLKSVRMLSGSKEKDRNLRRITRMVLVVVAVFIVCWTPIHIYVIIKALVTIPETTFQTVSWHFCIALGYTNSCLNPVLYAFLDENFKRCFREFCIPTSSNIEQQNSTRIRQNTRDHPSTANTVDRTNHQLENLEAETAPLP", "experimental": "as §1"}, "[33]": {"biological_target": "T33, α2A-Adrenergic (Human) (Homo sapiens, UniProt P08913)", "T33 construct": "gene ADRA2A", "T33 sequence (P08913 whole entry)": "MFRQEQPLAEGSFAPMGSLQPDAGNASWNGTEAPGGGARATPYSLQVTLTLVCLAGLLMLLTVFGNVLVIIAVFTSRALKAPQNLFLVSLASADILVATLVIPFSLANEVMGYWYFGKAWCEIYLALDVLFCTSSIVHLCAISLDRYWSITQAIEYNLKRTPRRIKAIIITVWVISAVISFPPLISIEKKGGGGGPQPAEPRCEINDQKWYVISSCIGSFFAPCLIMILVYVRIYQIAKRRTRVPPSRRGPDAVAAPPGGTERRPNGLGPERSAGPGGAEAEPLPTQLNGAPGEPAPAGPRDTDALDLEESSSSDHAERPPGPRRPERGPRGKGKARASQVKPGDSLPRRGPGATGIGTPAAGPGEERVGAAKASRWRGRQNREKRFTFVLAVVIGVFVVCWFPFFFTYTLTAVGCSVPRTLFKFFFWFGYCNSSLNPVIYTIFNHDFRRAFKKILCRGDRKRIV", "experimental": "as §1"}, "[34]": {"biological_target": "T34, Dopamine D2 short (Human) (Homo sapiens, UniProt P14416)", "T34 construct": "gene DRD2; short isoform", "experimental": "as §1"}, "[35]": {"biological_target": "T35, Bradykinin B1 (Human) (Homo sapiens, UniProt P46663)", "T35 construct": "gene BDKRB1", "experimental": "as §1"}, "[36]": {"biological_target": "T36, Neuropeptide Y2 (Human) (Homo sapiens, UniProt P49146)", "T36 construct": "gene NPY2R", "T36 sequence (P49146 whole entry)": "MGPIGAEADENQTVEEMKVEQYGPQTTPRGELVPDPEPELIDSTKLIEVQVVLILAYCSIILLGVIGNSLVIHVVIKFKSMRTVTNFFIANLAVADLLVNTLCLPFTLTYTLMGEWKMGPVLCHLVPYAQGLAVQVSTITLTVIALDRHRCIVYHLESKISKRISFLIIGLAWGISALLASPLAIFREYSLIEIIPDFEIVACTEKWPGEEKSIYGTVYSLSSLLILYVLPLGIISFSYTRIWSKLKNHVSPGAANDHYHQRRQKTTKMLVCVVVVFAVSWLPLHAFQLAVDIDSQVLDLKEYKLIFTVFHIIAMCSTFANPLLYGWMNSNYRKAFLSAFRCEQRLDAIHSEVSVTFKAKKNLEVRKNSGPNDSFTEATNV", "experimental": "as §1"}, "[37]": {"biological_target": "T37, Muscarinic M2 (Human) (Homo sapiens, UniProt P08172)", "T37 construct": "gene CHRM2", "experimental": "as §1"}, "[38]": {"biological_target": "T38, Neurokinin NK1 (Human) (Homo sapiens, UniProt P25103)", "T38 construct": "gene TACR1", "T38 sequence (P25103 whole entry)": "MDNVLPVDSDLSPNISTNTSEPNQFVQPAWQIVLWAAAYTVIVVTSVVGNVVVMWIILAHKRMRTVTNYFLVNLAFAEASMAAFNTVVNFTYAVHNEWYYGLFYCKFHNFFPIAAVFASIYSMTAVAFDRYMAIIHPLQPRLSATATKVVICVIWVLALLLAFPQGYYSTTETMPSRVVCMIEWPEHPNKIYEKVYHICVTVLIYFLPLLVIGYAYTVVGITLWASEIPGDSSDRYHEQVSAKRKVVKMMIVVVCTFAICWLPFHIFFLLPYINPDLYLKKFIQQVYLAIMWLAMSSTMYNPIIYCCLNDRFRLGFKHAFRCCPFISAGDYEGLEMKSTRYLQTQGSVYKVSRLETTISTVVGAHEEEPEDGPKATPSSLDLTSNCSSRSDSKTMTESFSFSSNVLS", "experimental": "as §1"}, "[39]": {"biological_target": "T39, Vasopressin V1 (Rattus norvegicus, UniProt P30560)", "T39 construct": "gene Avpr1a", "experimental": "as §1"}, "[40]": {"biological_target": "T40, Bradykinin B2 (Human) (Homo sapiens, UniProt P30411)", "T40 construct": "gene BDKRB2", "experimental": "as §1"}, "[41]": {"biological_target": "T41, Adenosine A2a (Human) (Homo sapiens, UniProt P29274)", "T41 construct": "gene ADORA2A", "experimental": "as §1"}, "[42]": {"biological_target": "T42, Cannabinoid CB1 (Human) (Homo sapiens, UniProt P21554)", "T42 construct": "gene CNR1", "experimental": "as §1"}}}
{"smiles": "COc1c(C)cnc(Cn2cnc3c(Cl)nc(N)nc32)c1C", "note": "[BIIB021, 6-Chloro-9-[(4-methoxy-3,5-dimethylpyridin-2-yl)methyl]-9H-purin-2-amine]", "values": [{"measurement": "inhibition at 10 µM", "setting": "[1]", "result": 0, "unit": "%"}, {"measurement": "inhibition at 10 µM", "setting": "[2]", "result": 0, "unit": "%"}, {"measurement": "inhibition at 10 µM", "setting": "[3]", "result": 26, "unit": "%"}, {"measurement": "inhibition at 10 µM", "setting": "[4]", "result": 4.9, "unit": "%"}, {"measurement": "inhibition at 10 µM", "setting": "[5]", "result": 8.1, "unit": "%"}, {"measurement": "inhibition at 10 µM", "setting": "[6]", "result": 2.4, "unit": "%"}, {"measurement": "inhibition at 10 µM", "setting": "[7]", "result": 0, "unit": "%"}, {"measurement": "inhibition at 10 µM", "setting": "[8]", "result": 8.4, "unit": "%"}, {"measurement": "inhibition at 10 µM", "setting": "[9]", "result": 4.5, "unit": "%"}, {"measurement": "inhibition at 10 µM", "setting": "[10]", "result": 0, "unit": "%"}, {"measurement": "inhibition at 10 µM", "setting": "[11]", "result": 1.1, "unit": "%"}, {"measurement": "inhibition at 10 µM", "setting": "[12]", "result": 16, "unit": "%"}, {"measurement": "inhibition at 10 µM", "setting": "[13]", "result": 0, "unit": "%"}, {"measurement": "inhibition at 10 µM", "setting": "[14]", "result": 0.9, "unit": "%"}, {"measurement": "inhibition at 10 µM", "setting": "[15]", "result": 1.5, "unit": "%"}, {"measurement": "inhibition at 10 µM", "setting": "[16]", "result": 4.2, "unit": "%"}, {"measurement": "inhibition at 10 µM", "setting": "[17]", "result": 7.6, "unit": "%"}, {"measurement": "inhibition at 10 µM", "setting": "[18]", "result": 0, "unit": "%"}, {"measurement": "inhibition at 10 µM", "setting": "[19]", "result": 18, "unit": "%"}, {"measurement": "inhibition at 10 µM", "setting": "[20]", "result": 0.7, "unit": "%"}, {"measurement": "inhibition at 10 µM", "setting": "[21]", "result": 14, "unit": "%"}, {"measurement": "inhibition at 10 µM", "setting": "[22]", "result": 0, "unit": "%"}, {"measurement": "inhibition at 10 µM", "setting": "[23]", "result": 0, "unit": "%"}, {"measurement": "inhibition at 10 µM", "setting": "[24]", "result": 0.4, "unit": "%"}, {"measurement": "inhibition at 10 µM", "setting": "[25]", "result": 4.7, "unit": "%"}, {"measurement": "inhibition at 10 µM", "setting": "[26]", "result": 0.7, "unit": "%"}, {"measurement": "inhibition at 10 µM", "setting": "[27]", "result": 2.8, "unit": "%"}, {"measurement": "inhibition at 10 µM", "setting": "[28]", "result": 4.8, "unit": "%"}, {"measurement": "inhibition at 10 µM", "setting": "[29]", "result": 1.8, "unit": "%"}, {"measurement": "inhibition at 10 µM", "setting": "[30]", "result": 1.9, "unit": "%"}, {"measurement": "inhibition at 10 µM", "setting": "[31]", "result": 0, "unit": "%"}, {"measurement": "inhibition at 10 µM", "setting": "[32]", "result": 0, "unit": "%"}, {"measurement": "inhibition at 10 µM", "setting": "[33]", "result": 13, "unit": "%"}, {"measurement": "inhibition at 10 µM", "setting": "[34]", "result": 0.9, "unit": "%"}, {"measurement": "inhibition at 10 µM", "setting": "[35]", "result": 0, "unit": "%"}, {"measurement": "inhibition at 10 µM", "setting": "[36]", "result": 1.3, "unit": "%"}, {"measurement": "inhibition at 10 µM", "setting": "[37]", "result": 4.6, "unit": "%"}, {"measurement": "inhibition at 10 µM", "setting": "[38]", "result": 6.2, "unit": "%"}, {"measurement": "inhibition at 10 µM", "setting": "[39]", "result": 3, "unit": "%"}, {"measurement": "inhibition at 10 µM", "setting": "[40]", "result": 0, "unit": "%"}, {"measurement": "inhibition at 10 µM", "setting": "[41]", "result": 14, "unit": "%"}, {"measurement": "inhibition at 10 µM", "setting": "[42]", "result": 5.1, "unit": "%"}]}
